Measurements taken from patent US20240000734A1, “PHARMACEUTICAL COMPOSITION HAVING AN ANALGAESIC AND AN ANTIHISTAMINE FOR TREATING RESPIRATORY DISEASES” (LABORATORIOS SILANES S.A. DE C.V., priority 2020, published 2024).

What was measured:
[1] = test system: patients with uncomplicated acute bronchitis; conditions: cited from earlier work; for Adverse events: P=0.008; for median number of days with cough: oral, placebo 11 days, not statistically significant
clinical = conditions: both, human, in vivo, po, 800 mg

SMILES	Adverse events [1] [%]	median number of days with cough [1] [days]	Cmax (clinical) [µg/mL]	Tmax (clinical) [h]	AUC (clinical; AUC0^t) [µg·h/mL]	AUC (clinical; AUC0^∞) [µg·h/mL]
CC1(C)S[C@@H]2[C@H](NC(=O)[C@H](N)c3ccc(O)cc3)C(=O)N2[C@H]1C(=O)O [amoxicillin]	12	11				
CC(C)Cc1ccc(C(C)C(=O)O)cc1 (racemic) [Ibuprofen, (±)-2-(4-isobutylphenyl) propionic acid]	5	9	54.6	1.35 ± 0.75	185	192
